Source: patent US10906876B2, “Tetrahydroisoquinolines as selective NADPH oxidase 2 inhibitors” (University of Pittsburgh—Of the Commonwealth System of …, priority 2013, dated 2021)

Biological target: T1, Nox5 (Homo sapiens, UniProt Q96PH1)
T1 construct: expressed in transfected cells; host or cells: HEK-Nox5 cells (gift of D. Fulton)
T1 sequence (Q96PH1 19-737 isoform Q96PH1-3 limits assumed): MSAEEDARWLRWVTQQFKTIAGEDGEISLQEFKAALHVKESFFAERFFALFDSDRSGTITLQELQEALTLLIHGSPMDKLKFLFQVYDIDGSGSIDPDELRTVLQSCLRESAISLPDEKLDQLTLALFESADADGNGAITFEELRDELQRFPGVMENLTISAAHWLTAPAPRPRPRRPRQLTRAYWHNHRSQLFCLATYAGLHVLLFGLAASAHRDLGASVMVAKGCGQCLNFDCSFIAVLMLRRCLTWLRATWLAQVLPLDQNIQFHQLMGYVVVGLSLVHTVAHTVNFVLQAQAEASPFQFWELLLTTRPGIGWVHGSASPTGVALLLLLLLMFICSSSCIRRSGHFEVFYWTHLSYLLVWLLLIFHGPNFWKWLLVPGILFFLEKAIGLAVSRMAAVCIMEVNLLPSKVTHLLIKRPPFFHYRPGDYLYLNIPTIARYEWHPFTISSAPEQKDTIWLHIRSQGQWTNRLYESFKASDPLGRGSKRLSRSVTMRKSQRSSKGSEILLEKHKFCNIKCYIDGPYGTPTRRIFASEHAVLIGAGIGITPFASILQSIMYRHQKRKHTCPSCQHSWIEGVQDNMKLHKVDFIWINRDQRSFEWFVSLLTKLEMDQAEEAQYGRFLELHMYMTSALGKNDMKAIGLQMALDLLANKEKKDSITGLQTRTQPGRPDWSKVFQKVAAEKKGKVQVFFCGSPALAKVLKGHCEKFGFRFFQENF
Experiment: Nox5 activity in HEK-Nox5 cells, L-012 assay
Format: cell-based
Settings: for IC50: HEK-Nox5 cells stimulated with 1 μM PMA and 0.5 ionomycin, L-012, read-out: IC50 of ROS generation, Nox5 (L-012 assay); for Nox5 inhibitory activity: Table 2
Excerpt: All cell culture reagents were obtained from Invitrogen, unless indicated. COS-22 (COS-7 cells stably expressing human p22^phox) and COS-Nox2 (a.k.a. COS-phox) cells (COS-7 cells stably expressing human p22^phox, Nox2, p47^phox and p67^phox) were kindly provided by Dr. Mary C. Dinauer (Indiana University, School of Medicine) (Price et al., Blood, 2002, 99:2653-2661). COS-22 cells were maintained in Dulbecco's Modified Eagle Medium (DMEM) with 4.5 g/L glucose, L-glutamine and sodium pyruvate containing 10% heat-inactivated fetal bovine serum (FBS), 100 units/ml penicillin and 100 μg/ml streptomycin (complete media) supplemented with 1.8 mg/ml G418 (Calbiochem/EMB Bioscience, Gibbstown, N.J.). COS-Nox2 cells were maintained in complete media supplemented with 1.8 mg/mL G418, 1 μg/mL puromycin (Sigma, St Louis, Mo.) and 0.2 mg/mL hygromycin B (Invitrogen, Carlsbad, Calif.). HEK-Nox5 cells were kindly provided by Dr. David Fulton (Georgia Health Sciences University) and maintained in complete media.
COS-Nox2, COS-Nox1/NOXO1/NOXA1, HEK-Nox5 and COS-22 cells were re-plated in OPTIMEM into 384-well white micro-plates (Greiner-Bio One GmbH, Germany) at a density of 2.5×10^3 cells/well for COS-Nox2 and 5×10^4 cells/well for all others. The cells were incubated at 37° C. in PBS containing 400 μm L-012 for 10 min. […] Since Nox1 was constitutively active, Nox1-derived O2^•− was assessed by comparison to non-transfected cells (Cos22). Luminescence was quantified over time using a Biotek Synergy 4 Hybrid Multi-Mode Microplate Reader. The specificity of L-012 for O2^•− was confirmed by the addition of SOD (150 U/mL).
All data are expressed as means±SEM. IC50 values were determined using the GraphPad Prism software (GraphPad Software, San Diego, Calif.) for non-linear regression three-parameters, with constrain values of 100 and 0 for top and bottom, respectively, and assumes a Hill slope of 1.

Row | IC50 [µM] | Nox5 inhibitory activity | SMILES
1 | 14 ± 0.6 | comparable | C=C(C)CC1NC2CC(C)(C)C1c1c(-c3ccc(Cl)c(Cl)c3)cccc12 (racemic) [Compound 12a, (±)-(1S,4R,9S)-5-(3,4-Dichlorophenyl)-3,3-dimethyl-9-(2-methylallyl)-1,2,3,4-tetrahydro-1,4-(epiminomethano)naphthalene]
2 | > 100 | – | C=C(C)CC1C2c3c(-c4ccc(Cl)c(Cl)c4)cccc3C(CC2(C)C)N1Cc1ccc2c(c1)OCO2 (racemic) [Compound 12b, (±)-(1S,4R,9S)-10-(Benzo[d][1,3]dioxol-5-ylmethyl)-5-(3,4-dichlorophenyl)-3,3-dimethyl-9-(2-methylallyl)-1,2,3,4-tetrahydro-1,4-(epiminomethano)-naphthalene]
3 | > 100 | – | C=C(C)CC1C2c3c(-c4ccc(Cl)c(Cl)c4)cccc3C(CC2(C)C)N1CCCCC (racemic) [Compound 12c]
4 | > 100 | – | C=C(C)CC1C2c3c(Br)cccc3C(CC2(C)C)N1S(C)(=O)=O (racemic) [Compound 14a, (±)-(1S,4R,9S)-5-Bromo-3,3-dimethyl-9-(2-methylallyl)-10-(methylsulfonyl)-1,2,3,4-tetrahydro-1,4-(epiminomethano)naphthalene]
5 | > 100 | – | C=C(C)CC1C2c3c(Br)cccc3C(CC2(C)C)N1S(=O)(=O)c1ccc(F)cc1 (racemic) [Compound 14b, (±)-(1S,4R,9S)-5-Bromo-10-((4-fluorophenyl)sulfonyl)-3,3-dimethyl-9-(2-methylallyl)-1,2,3,4-tetrahydro-1,4-(epiminomethano)naphthalene]

The remaining lines, values behind:

Row | SMILES | IC50 [µM] | Nox5 inhibitory activity
6 | C=C(C)CC1NC2CC(C)(C)C1c1c(Br)cccc12 (racemic) [Compound 7, (±)-(1S,4R,9S)-5-Bromo-3,3-dimethyl-9-(2-methylallyl)-1,2,3,4-tetrahydro-1,4-(epimino-methano)-naphthalene] | 20 ± 3.1 | active
7 | C=C(C)CC1NC2CC(C)(C)C1c1ccccc12 (racemic) [Compound 8, (±)-(1S,4R,9S)-3,3-Dimethyl-9-(2-methylallyl)-1,2,3,4-tetrahydro-1,4-(epiminomethano)-naphthalene] | > 100 | inactive
8 | C=C(C)CC1C2c3ccccc3C(CC2(C)C)N1Cc1cccc(F)c1 (racemic) [Compound 11a, (±)-(1S,4R,9S)-10-(3-Fluorobenzyl)-3,3-dimethyl-9-(2-methylallyl)-1,2,3,4-tetrahydro-1,4-(epiminomethano)naphthalene] | 50 ± 9 | inhibited
9 | C=C(C)CC1C2c3c(Br)cccc3C(CC2(C)C)N1Cc1ccnc2ccccc12 (racemic) [Compound 11b, (±)-(1S,4R,9S)-5-Bromo-3,3-dimethyl-9-(2-methylallyl)-10-(quinolin-4-ylmethyl)-1,2,3,4-tetra-hydro-1,4-(epiminomethano)naphthalene] | > 100 | –
10 | C=C(C)CC1C2c3c(Br)cccc3C(CC2(C)C)N1Cc1c[nH]c2ccccc12 (racemic) [Compound 11c, (±)-(1S,4R,9S)-10-((1H-Indol-3-yl)methyl)-5-bromo-3,3-dimethyl-9-(2-methylallyl)-1,2,3,4-tetrahydro-1,4-(epiminomethano)naphthalene] | > 100 | –
11 | C=C(C)CC1C2c3c(Br)cccc3C(CC2(C)C)N1Cc1ccc2c(c1)OCO2 (racemic) [Compound 11d, (±)-(1S,4R,9S)-10-(Benzo[d][1,3]dioxol-5-ylmethyl)-5-bromo-3,3-dimethyl-9-(2-methylallyl)-1,2,3,4-tetrahydro-1,4-(epiminomethano)naphthalene] | > 100 | –
12 | C=C(C)CC1C2c3c(Br)cccc3C(CC2(C)C)N1Cc1cc(C)on1 (racemic) [Compound 11e, (±)-3-(1S,4R,9S)-5-Bromo-3,3-dimethyl-9-(2-methylallyl)-1,2,3,4-tetrahydro-1,4-(epimino-methano) naphthalen-10-yl)methyl)-5-methylisoxazole] | 31 ± 11 | inhibited
13 | C=C(C)CC1C2c3c(Br)cccc3C(CC2(C)C)N1Cc1cccc(F)c1 (racemic) [Compound 11f, (±)-(1S,4R,9S)-5-Bromo-10-(3-fluorobenzyl)-3,3-dimethyl-9-(2-methylallyl)-1,2,3,4-tetrahydro-1,4-(epiminomethano)naphthalene] | 79 ± 30 | inhibited
14 | C=C(C)CC1C2c3c(Br)cccc3C(CC2(C)C)N1CCCCC (racemic) [Compound 11g, (±)-(1S,4R,9S)-5-Bromo-3,3-dimethyl-9-(2-methylallyl-10-pentyl-1,2,3,4-tetrahydro-1,4-(epiminomethano)naphthalene] | > 100 | virtually no effect
15 | C=C(C)CC1C2c3c(Br)cccc3C(CC2(C)C)N1Cc1cccs1 (racemic) [Compound 11h, (±)-(1S,4R,9S)-5-Bromo-3,3-dimethyl-9-(2-methylallyl)-10-(thiophen-2-ylmethyl)-1,2,3,4-tetrahydro-1,4-(epiminomethano)naphthalene] | > 100 | virtually no effect
16 | CC(C)CC1NC2CC(C)(C)C1c1c(Br)cccc12 (racemic) [Compound 13] | 18 ± 1 | retained inhibitory activity
17 | C=C(C)C[C@@H]1N[C@H]2CC(C)(C)[C@@H]1c1c(Br)ccc(Br)c12 [Compound 9] | 36 | active
